# Measured values taken from patent publication US7723332B2, “Aryl sulfonamides useful for modulation of the progesterone receptor” (Wyeth LLC, priority 2007, dated 2010).
# System: alkaline phosphatase activity in T47D cells
# Assay: Effects of progestins and antiprogestins on alkaline phosphatase activity in T47D cells
# Format: cell-based
# Details: Homo sapiens, T47D, 24 h; reference antiprogestin, in the presence of 1 nM progesterone; typical value
# Method: Effects of Progestins and Antiprogestins on Alkaline Phosphatase Activity in T47D Cells
# This example was performed to identify progestins or antiprogestins by determining a compound's effect on alkaline phosphatase activity in T47D cells.
# Culture medium: DMEM:F12 (1:1) (GIBCO, BRL) supplemented with 5% (v/v) charcoal stripped fetal bovine serum (not heat-inactivated), 100 U/mL penicillin, 100 μg/mL streptomycin, and 2 mM the GlutaMax™ reagent (GIBCO, BRL).
# Alkaline phosphatase assay buffer: • I. 0.1M Tris-HCl, pH 9.8, containing 0.2% the Triton® X-100 reagent • II. 0.1 M Tris-HCl, pH 9.8, containing 4 mM p-nitrophenyl phosphate (Sigma).
# Frozen T47D cells were thawed in a 37° C. water bath and diluted to 280,000 cells/mL in culture medium. To each well in a 96-well plate (Falcon, Becton Dickinson Labware), 180 μL of diluted cell suspension was added. Twenty μL of reference or test compounds diluted in the culture medium was then added to each well. When testing for progestin antagonist activity, reference antiprogestins or test compounds were added in the presence of 1 nM progesterone. The cells were incubated at 37° C. in a 5% CO2/humidified atmosphere for 24 hours. NOTE: For high throughput screening, one concentration of each compound was tested at 0.3 μg/mL. Based on an average molecular weight of 300 g/mol for the compounds in the library, the concentration was approximately 1 μM. Subsequently, active compounds were tested in dose response assays to determine EC50 and IC50.
# At the end of treatment, the medium was removed from the plate. Fifty μL of assay buffer I was added to each well. The plates were shaken in a titer plate shaker for 15 minutes. 150 μL of assay buffer II was then added to each well. Optical density measurements were taken at 5 minute intervals for 30 minutes at a test wavelength of 405 nm.
# For reference and test compounds, a dose response curve was generated for dose (X-axis) vs. the rate of enzyme reaction (slope) (Y-axis). Square root-transformed data was used for analysis of variance and nonlinear dose response curve fitting for both agonist and antagonist modes. Huber weighting was used to down-weight the effects of outliners. EC50 or IC50 values were calculated from the retransformed values. JMP software (SAS Institute, Inc.) was used for both one-way analysis of variance and non-4 linear dose response analysis in both single dose and dose response studies.
# Progesterone and trimegestone are reference progestins known in the art and typically show an EC50 of about 0.1 nM to about 2.0 nM.
row,SMILES,IC50
1,"CC#C[C@]1(O)CC[C@H]2[C@@H]3CCC4=CC(=O)CCC4=C3[C@@H](c3ccc(N(C)C)cc3)C[C@@]21C [RU486, reference compound]",0.1 to 2 nM

# Same assay, conditions: Homo sapiens, T47D; reference progestins, agonist mode; typical values
row,SMILES,EC50
1,CC(=O)[C@H]1CC[C@H]2[C@@H]3CCC4=CC(=O)CC[C@]4(C)[C@H]3CC[C@]12C [Progesterone],0.1 to 2 nM

# Same assay, conditions: Homo sapiens; T47D alkaline phosphatase assay; antagonist mode in the presence of 1 nM progesterone; 24 hours
row,SMILES,IC50
1,"Cn1c(C#N)ccc1-c1ccc(S(=O)(=O)NC2CCC2)cc1F [Example 40, 4-(5-cyano-1-methyl-1H-pyrrol-2-yl)-N-cyclobutyl-3-fluorobenzenesulfonamide]",18.1 nM
2,"CCN(CC)S(=O)(=O)c1ccc(-c2ccc(C#N)n2C)cc1F [Example 41, 4-(5-cyano-1-methyl-1H-pyrrol-2-yl)-N,N-diethyl-2-fluorobenzenesulfonamide]",62.2 nM
3,"CC(C)NS(=O)(=O)c1ccc(-c2ccc(C#N)n2C)cc1F [Example 42, 4-(5-cyano-1-methyl-1H-pyrrol-2-yl)-2-fluoro-N-isopropylbenzenesulfonamide]",48.1 nM
4,"Cn1c(C#N)ccc1-c1ccc(S(=O)(=O)NCC2CC2)c(F)c1 [Example 44, 4-(5-cyano-1-methyl-1H-pyrrol-2-yl)-N-(cyclopropylmethyl)-2-fluorobenzenesulfonamide]",45.6 nM
5,"Cn1c(C#N)ccc1-c1ccc(S(=O)(=O)NC2CCC2)c(F)c1 [Example 45, 4-(5-cyano-1-methyl-1H-pyrrol-2-yl)-N-cyclobutyl-2-fluorobenzenesulfonamide]",99.4 nM
6,"Cn1c(C#N)ccc1-c1ccc(S(N)(=O)=O)c(OC(F)(F)F)c1 [Example 46, 4-(5-cyano-1-methyl-1H-pyrrol-2-yl)-2-(trifluoromethoxy)benzenesulfonamide]",75.8 nM
7,"CN(C)S(=O)(=O)c1ccc(-c2ccc(C#N)n2C)cc1OC(F)(F)F [Example 48, 4-(5-cyano-1-methyl-1H-pyrrol-2-yl)-N,N-dimethyl-2-(trifluoromethoxy)benzenesulfonamide]",62.7 nM
8,"CCNS(=O)(=O)c1ccc(-c2ccc(C#N)n2C)cc1OC(F)(F)F [Example 49, 4-(5-cyano-1-methyl-1H-pyrrol-2-yl)-N-ethyl-2-(trifluoromethoxy)benzenesulfonamide]",122 nM
9,"CCN(CC)S(=O)(=O)c1ccc(-c2ccc(C#N)n2C)cc1OC(F)(F)F [Example 50, 4-(5-cyano-1-methyl-1H-pyrrol-2-yl)-N,N-diethyl-2-(trifluoromethoxy)benzenesulfonamide]",101 nM
10,"CC(C)NS(=O)(=O)c1ccc(-c2ccc(C#N)n2C)cc1OC(F)(F)F [Example 51, 4-(5-cyano-1-methyl-1H-pyrrol-2-yl)-N-isopropyl-2-(trifluoromethoxy)benzenesulfonamide]",32.5 nM
11,"CCCNS(=O)(=O)c1ccc(-c2ccc(C#N)n2C)cc1OC(F)(F)F [Example 52, 4-(5-cyano-1-methyl-1H-pyrrol-2-yl)-N-propyl-2-(trifluoromethoxy)benzenesulfonamide]",8.4 nM
12,"Cn1c(C#N)ccc1-c1ccc(S(=O)(=O)N2CCCC2)c(OC(F)(F)F)c1 [Example 53, 1-methyl-5-[4-(pyrrolidin-1-ylsulfonyl)-3-(trifluoromethoxy)phenyl]-1H-pyrrole-2-carbonitrile]",22.7 nM
13,"Cn1c(C#N)ccc1-c1ccc(S(=O)(=O)NC2CC2)c(OC(F)(F)F)c1 [Example 54, 4-(5-cyano-1-methyl-1H-pyrrol-2-yl)-N-cyclopropyl-2-(trifluoromethoxy)benzenesulfonamide]",71.7 nM
14,"Cn1c(C#N)ccc1-c1ccc(S(=O)(=O)NCC2CC2)c(OC(F)(F)F)c1 [Example 55, 4-(5-cyano-1-methyl-1H-pyrrol-2-yl)-N-(cyclopropylmethyl)-2-(trifluoromethoxy)benzenesulfonamide]",12.3 nM
15,"CN(C)c1cc(-c2ccc(C#N)n2C)ccc1S(=O)(=O)N(C)C [Example 58, 4-(5-cyano-1-methyl-1H-pyrrol-2-yl)-2-(dimethylamino)-N,N-dimethylbenzenesulfonamide]",25.9 nM
16,"CNS(=O)(=O)c1cc(F)c(-c2ccc(C#N)n2C)cc1F [Example 59, 4-(5-cyano-1-methyl-1H-pyrrol-2-yl)-2,5-difluoro-N-methylbenzenesulfonamide]",36.1 nM
17,"CC(C)NS(=O)(=O)c1cc(F)c(-c2ccc(C#N)n2C)cc1F [Example 60, 4-(5-cyano-1-methyl-1H-pyrrol-2-yl)-2,5-difluoro-N-isopropylbenzenesulfonamide]",49.3 nM
18,"Cn1c(C#N)ccc1-c1cc(F)c(S(=O)(=O)NCC2CC2)cc1F [Example 62, 4-(5-cyano-1-methyl-1H-pyrrol-2-yl)-N-(cyclopropylmethyl)-2,5-difluorobenzenesulfonamide]",164 nM
19,"Cn1c(C#N)ccc1-c1ccc(S(N)(=O)=O)cc1 [Example 63, 4-(5-cyano-1-methyl-1H-pyrrol-2-yl)benzenesulfonamide]",99.5 nM

# Same assay, conditions: T47D alkaline phosphatase assay; antagonist mode in the presence of 1 nM progesterone; 24 hours
row,SMILES,Active Dose
1,"Cn1c(C#N)ccc1-c1ccc(S(=O)(=O)NC2CC2)c(F)c1 [Example 43, 4-(5-cyano-1-methyl-1H-pyrrol-2-yl)-N-cyclopropyl-2-fluorobenzenesulfonamide]",30 nM
2,"Cn1c(C#N)ccc1-c1ccc(S(=O)(=O)NC2CCC2)c(OC(F)(F)F)c1 [Example 56, 4-(5-cyano-1-methyl-1H-pyrrol-2-yl)-N-cyclobutyl-2-(trifluoromethoxy)benzenesulfonamide]",30 nM
3,"Cn1c(C#N)ccc1-c1ccc(S(=O)(=O)NC(C)(C)C)c(OC(F)(F)F)c1 [Example 57, N-tert-butyl-4-(5-cyano-1-methyl-1H-pyrrol-2-yl)-2-(trifluoromethoxy)benzenesulfonamide]",30 nM
4,"Cn1c(C#N)ccc1-c1cc(F)c(S(=O)(=O)NC2CC2)cc1F [Example 61, 4-(5-cyano-1-methyl-1H-pyrrol-2-yl)-N-cyclopropyl-2,5-difluorobenzenesulfonamide]",30 nM
